From publication PMC12542672, “Pleiotropic role of PAX cyclolipopeptides in the Xenorhabdus bacterium mutualistically associated with entomopathogenic nematodes” (Applied and Environmental Microbiology, 2025)
Converted amounts (≈) assume the structure as drawn. Like-named read-outs stand apart in the source and are kept apart here. Where a SMILES comes first, the peptide text is derived from it. Bridges are numbered along the chain shown (N, C = ends). Where no end group is shown, it is not given here. [ ]: non-standard residue; d: D form. The star is where a group is joined. Hexadecanoyl(3R-OH) = CCCCCCCCCCCCC[C@@H](O)CC(=O)*; Tetradecanoyl(3R-OH) = CCCCCCCCCCC[C@@H](O)CC(=O)*; X1 = CC[C@H](C)CCCCC(=O)*; Dab = NCC[C@H](N)C(=O)O

Legend:
X. nematophila WT = assay type: cell-based, Xenorhabdus nematophila F1
Experimental: (§1) Bacteria were routinely grown in Lysogeny Broth (Sigma-Aldrich) medium at 28°C (Xenorhabdus, S. maltophilia, P. protegens, Ochrobactrum sp., Achromobacter sp., A. faecalis, Pseudochrobactrum sp., Brevundimonas sp., E. mundtii, and D. rugosa) or 37°C (Escherichia coli and M. luteus). When required, antibiotics were used at the following final concentrations: gentamicin (Sigma-Aldrich), 20 µg mL^−1 and chloramphenicol (Sigma-Aldrich), 20 µg mL^−1 for E. coli strains and 15 µg mL^−1 for X. nematophila (or 8 µg mL^−1 for allelic exchange).
(§2) MICs were determined in accordance with CLSI guidelines ([73]) with the following modifications: 5 mL of MHB broth (Bio-Rad) was inoculated with an overnight culture in LB broth and grown to a 0.6 < OD600 < 0.9. The inoculum for the microplate was prepared as described in the CLSI guide, with dilution in MHB to approximately 10^4 CFU mL^−1. Ninety-six-well low-binding plates were incubated for 48 h at 28°C with slow shaking. The peptides used in the analyses were supplied by the following providers: cecropin A (Sigma-Aldrich), cecropin B1 (NeoMPS S.A.) ([74]), cecropin C (Proteogenix), cecropin P1 (Sigma-Aldrich), drosocin (Eurogentec), colistin (Sigma-Aldrich), polymyxin B (Sigma-Aldrich), and NOSO 95C (odilorhabdin, Nosopharm S.A.). Synthetic PAX1′, PAX2′, and PAX7 were provided by the SynBio3 platform (IBMM, Montpellier, France), and their structure is shown in Fig. S1.

X. nematophila ∆paxA = assay type: cell-based, Xenorhabdus nematophila F1; details: CLSI with modifications, MHB broth, approx. 10^4 CFU mL^−1, 96-well low-binding plates, 48 h at 28°C, slow shaking
Experimental: as §1
The ΔpaxA mutant was constructed using the same experimental strategy as for the construction of the ΔngrA mutant from the WT strain X. nematophila F1 ([37]). The upstream and downstream regions of the paxA gene were amplified by PCR with the L-PCR1-paxA-SalI and R-PCR1-paxA-BamHI primers for the upstream region (621 bp) and the L-PCR2-paxA-BamHI and R-PCR2-paxA-SpeI primers for the downstream region (601 bp). The two fragments obtained were inserted, together with the 3.8 kb BamHI fragment ΩCam cassette from pHP45-ΩCm, conferring resistance to chloramphenicol, into pJQ200SK digested with SalI and SpeI for insertion of the ΩCam cassette between the two PCR fragments. The resulting plasmid, pJQ-paxA::ΩCm, was used to transform E. coli WM3064 and was introduced into X. nematophila F1 by mating. Allelic exchange was performed as previously described ([68]). ΩCam insertion was confirmed by PCR analysis using primers L-paxTA and R-verif-pax. The absence of PAX peptide products was assessed by mass spectrometry analysis, as described below. The clone obtained was called ΔpaxA.
as §2

X. nematophila ∆ngrA = assay: MIC assay of antimicrobial peptides on X. nematophila ∆ngrA; assay type: cell-based, Xenorhabdus nematophila F1; details: CLSI with modifications, MHB broth, approx. 10^4 CFU mL^−1, 96-well low-binding plates, 48 h at 28°C, slow shaking
Experimental: as §1, §2

Achromobacter sp. D7.1 = assay type: cell-based; details: 48 h
Experimental: as §1, §2

Alcaligenes faecalis SC = assay type: cell-based; details: 48 h
Experimental: as §1, §2

Brevundimonas sp. ALL3 = assay type: cell-based; details: 48 h
Experimental: as §1, §2

Diutina rugosa GC = assay type: cell-based; details: 48 h
Experimental: as §1, §2

Enterococcus mundtii SP = assay type: cell-based; details: 48 h
Experimental: as §1, §2

[1] = test system: Micrococcus luteus CIP103430; assay type: cell-based; details: CIP103430, 48 h
Experimental: as §1, §2

Ochrobactrum sp. ALL4 = assay type: cell-based; details: 48 h
Experimental: as §1, §2

[2] = test system: Pseudochrobactrum sp. AL3; assay type: cell-based; details: 48 h
Experimental: as §1, §2

[3] = test system: Pseudomonas protegens PPSC10; assay type: cell-based; details: 48 h
Experimental: as §1, §2

[4] = test system: Stenotrophomonas maltophilia ALL5; assay type: cell-based; details: 48 h
Experimental: as §1, §2

[5] = X. nematophila WT, CLSI with modifications, MHB broth, approx. 10^4 CFU mL^−1, 96-well low-binding plates, 48 h at 28°C, slow shaking

Compound | Minimum inhibitory concentration (X. nematophila WT; [5]) [µg/mL] | Minimum inhibitory concentration (X. nematophila ∆paxA) [µg/mL] | Minimum inhibitory concentration (X. nematophila ∆ngrA) [µg/mL] | Minimum inhibitory concentration (Achromobacter sp. D7.1) [µg/mL] | Minimum inhibitory concentration (Alcaligenes faecalis SC) [µg/mL] | Minimum inhibitory concentration (Brevundimonas sp. ALL3) [µg/mL] | Minimum inhibitory concentration (Diutina rugosa GC) [µg/mL] | Minimum inhibitory concentration (Enterococcus mundtii SP) [µg/mL] | Minimum inhibitory concentration [1] [µg/mL] | Minimum inhibitory concentration (Ochrobactrum sp. ALL4) [µg/mL] | Minimum inhibitory concentration [2] [µg/mL] | Minimum inhibitory concentration [3] [µg/mL] | Minimum inhibitory concentration [4] [µg/mL] | Minimum inhibitory concentration (X. nematophila WT; 48 h)
cecropin B1 | 6.25 | 6.25 | 6.25 |  |  |  |  |  |  |  |  |  |  | 
CCCCCCCCCCCCC[C@@H](O)CC(=O)NCC(=O)N[C@@H](CCCCN)C(=O)N[C@@H]1CCCCNC(=O)[C@H](CCCCN)NC(=O)[C@@H](CCCCN)NC(=O)[C@@H](CCCCN)NC(=O)[C@H](CCCCN)NC1=O [Synthetic PAX7] ({Hexadecanoyl(3R-OH)}-GK[dK]K[dK][dK]K; lactam 3-C (inferred)) | 187.5 (≈ 174 µM) |  | 375 (≈ 347 µM) | 62.5 (≈ 57.8 µM) | 125 (≈ 116 µM) | 31.25 (≈ 28.9 µM) | 62.5 (≈ 57.8 µM) | 15.63 (≈ 14.5 µM) | 0.49 (≈ 0.453 µM) | 62.5 (≈ 57.8 µM) | 62.5 (≈ 57.8 µM) | 62.5 (≈ 57.8 µM) | 125 (≈ 116 µM) | 
CC[C@H](C)CCCCC(=O)N[C@@H](CCN)C(=O)N[C@H](C(=O)N[C@@H](CCN)C(=O)N[C@H]1CCNC(=O)[C@H]([C@@H](C)O)NC(=O)[C@H](CCN)NC(=O)[C@H](CCN)NC(=O)[C@H](CC(C)C)NC(=O)[C@@H](CC(C)C)NC(=O)[C@H](CCN)NC1=O)[C@@H](C)O [Colistin, colistin] (X1-[Dab]T[Dab][Dab][Dab][dL]L[Dab][Dab]T; lactam 4-C (inferred); N-terminus assumed) | 3.9 (≈ 3.33 µM) | 1.95 (≈ 1.67 µM) | 3.9 (≈ 3.33 µM) |  |  |  |  |  |  |  |  |  |  | 
SWLSKTAKKLENSAKKRISEGIAIAIQGGPR [Cecropin P1, cecropin P1] | >12.5 |  | 12.5 |  |  |  |  |  |  |  |  |  |  | 
CCCCCCCCCCC[C@@H](O)CC(=O)NCC(=O)N[C@@H](CCCNC(=N)N)C(=O)N[C@@H]1CCCCNC(=O)[C@H](CCCCN)NC(=O)[C@@H](CCCCN)NC(=O)[C@@H](CCCCN)NC(=O)[C@H](CCCCN)NC1=O [Synthetic PAX2′] ({Tetradecanoyl(3R-OH)}-GR[dK]K[dK][dK]K; lactam 3-C (inferred)) |  | 375 (≈ 347 µM) | 375 (≈ 347 µM) | 62.5 (≈ 57.8 µM) | 125 (≈ 116 µM) | 62.5 (≈ 57.8 µM) | 62.5 (≈ 57.8 µM) | 31.25 (≈ 28.9 µM) | 1.95 (≈ 1.8 µM) | 62.5 (≈ 57.8 µM) | 125 (≈ 116 µM) | 125 (≈ 116 µM) | 125 (≈ 116 µM) | 187.5 µg/mL (≈ 174 µM)
GKPRPYSPRPTSHPRPIRV [Drosocin, drosocin] |  |  |  |  |  |  |  |  |  |  |  |  |  | >50 µg/mL
cecropin C | 12.5 | 12.5 | 25 |  |  |  |  |  |  |  |  |  |  | 
CC[C@H](C)CCCCC(=O)N[C@@H](CCN)C(=O)N[C@H](C(=O)N[C@@H](CCN)C(=O)N[C@H]1CCNC(=O)[C@H]([C@@H](C)O)NC(=O)[C@H](CCN)NC(=O)[C@H](CCN)NC(=O)[C@H](CC(C)C)NC(=O)[C@@H](Cc2ccccc2)NC(=O)[C@H](CCN)NC1=O)[C@@H](C)O [Polymyxin B, polymyxin B] (X1-[Dab]T[Dab][Dab][Dab][dF]L[Dab][Dab]T; lactam 4-C (inferred); N-terminus assumed) | 0.245 (≈ 0.204 µM) | 0.245 (≈ 0.204 µM) | 0.245 (≈ 0.204 µM) |  |  |  |  |  |  |  |  |  |  | 
CCCCCCCCCCC[C@@H](O)CC(=O)NCC(=O)N[C@@H](CCCCN)C(=O)N[C@@H]1CCCCNC(=O)[C@H](CCCCN)NC(=O)[C@@H](CCCCN)NC(=O)[C@@H](CCCCN)NC(=O)[C@H](CCCCN)NC1=O [Synthetic PAX1′] ({Tetradecanoyl(3R-OH)}-GK[dK]K[dK][dK]K; lactam 3-C (inferred)) |  |  |  | > 250 | > 250 | 31.25 (≈ 29.7 µM) | 25 (≈ 23.8 µM) | 125 (≈ 119 µM) | 3.9 (≈ 3.71 µM) | > 250 | > 250 | > 250 | > 250 | >1,500 µg mL^−1
